Results published in patent publication US20250214967A1, “FAK DEGRADERS, PHARMACEUTICAL COMPOSITIONS, AND THERAPEUTIC APPLICATIONS” (Berrybio (Shanghai) Limited, priority 2022, published 2025).

Target: FAK (Homo sapiens (Human), UniProt Q05397)
Assay: FAK Degradation Assay (Western blot, FAK/GAPDH)
Assay type: cell-based
Conditions: MDA-MB-231 cells, 24 h treatment, Western blot normalized to DMSO; for DC50: read-out: DC50 (half-maximal degradation concentration), FAK Degradation; for Dmax: read-out: Dmax (maximal degradation), FAK Degradation
Experimental: H2122 (4×10^5), MIA PaCa-2 (6×10s), or MDA-MB-231 cells (6×10^5) per well were seeded into a 6-well plate containing 2 mL of complete culture medium (RPMI-1640 for H2122 and MDA-MB-231, and DMEM/F12 for MIA PaCa-2, supplemented with 10% FBS and 1% penicillin/streptomycin). The cells were cultured overnight at 37° C. in the presence of 5% C02 before treated with a compound in a series of concentrations for 24 h. The cells were then washed with ice-cold Dulbecco's phosphate-buffered saline (DPBS). A radioimmuno-precipitation assay (RIPA) buffer was added to lyse the cells on ice for 20 min. The cells were then scrapped using cell scraper and collected in a 1.5 mL tube, which was centrifuged at 14,000 g and 4° C. for 15 min. The supernatant was collected and the total protein concentration of each sample was determined using a PIERCE™ BCA protein assay kit. The supernatant was diluted to the same protein concentration with the RIPA buffer after the BCA assay. Samples of the same protein amount were mixed with 4× a lithium dodecyl sulfate (LDS) sample buffer and boiled at 95° C. for 5 min. The denatured samples were used for electrophoresis.
For Western blot, the same volume containing ˜50 μg protein for each sample was loaded onto 4-12% Bis-Tris protein gel. The gel was run at 80 V for 0.5 h and at 120 V for 1 h. When the electrophoresis was completed, an IBLOT™ 2 gel transfer device was used to transfer FAK and GAPDH proteins at 20 V for 7 min. All the membranes were blocked in 5% nonfat dry milk in a TBST buffer at RT for 1 h and then incubated with primary antibodies (anti-FAK and anti-GAPDH) in a TBST buffer containing 5% BSA at 4° C. overnight. The membranes were washed with the TBST buffer and then incubated with secondary antibodies (goat anti-rabbit IgG H&L for FAK and goat anti-mouse IgG H&L for GAPDH) at room temperature for 1 h. Blots were visualized using an IMAGEQUANT™ LAS-4000. The chemiluminescent signals from ECL™ Western blotting reagents were captured. The band integrated intensity from each 16-bit blot image was used for quantitation. The FAK/GAPDH signal ratios of each sample were normalized using DMSO as a control and the normalized data for each compound were used to obtain its half-maximal degradation concentration (DC50) and maximal degradation (Dmax).

Sequence of FAK (Q05397 whole entry): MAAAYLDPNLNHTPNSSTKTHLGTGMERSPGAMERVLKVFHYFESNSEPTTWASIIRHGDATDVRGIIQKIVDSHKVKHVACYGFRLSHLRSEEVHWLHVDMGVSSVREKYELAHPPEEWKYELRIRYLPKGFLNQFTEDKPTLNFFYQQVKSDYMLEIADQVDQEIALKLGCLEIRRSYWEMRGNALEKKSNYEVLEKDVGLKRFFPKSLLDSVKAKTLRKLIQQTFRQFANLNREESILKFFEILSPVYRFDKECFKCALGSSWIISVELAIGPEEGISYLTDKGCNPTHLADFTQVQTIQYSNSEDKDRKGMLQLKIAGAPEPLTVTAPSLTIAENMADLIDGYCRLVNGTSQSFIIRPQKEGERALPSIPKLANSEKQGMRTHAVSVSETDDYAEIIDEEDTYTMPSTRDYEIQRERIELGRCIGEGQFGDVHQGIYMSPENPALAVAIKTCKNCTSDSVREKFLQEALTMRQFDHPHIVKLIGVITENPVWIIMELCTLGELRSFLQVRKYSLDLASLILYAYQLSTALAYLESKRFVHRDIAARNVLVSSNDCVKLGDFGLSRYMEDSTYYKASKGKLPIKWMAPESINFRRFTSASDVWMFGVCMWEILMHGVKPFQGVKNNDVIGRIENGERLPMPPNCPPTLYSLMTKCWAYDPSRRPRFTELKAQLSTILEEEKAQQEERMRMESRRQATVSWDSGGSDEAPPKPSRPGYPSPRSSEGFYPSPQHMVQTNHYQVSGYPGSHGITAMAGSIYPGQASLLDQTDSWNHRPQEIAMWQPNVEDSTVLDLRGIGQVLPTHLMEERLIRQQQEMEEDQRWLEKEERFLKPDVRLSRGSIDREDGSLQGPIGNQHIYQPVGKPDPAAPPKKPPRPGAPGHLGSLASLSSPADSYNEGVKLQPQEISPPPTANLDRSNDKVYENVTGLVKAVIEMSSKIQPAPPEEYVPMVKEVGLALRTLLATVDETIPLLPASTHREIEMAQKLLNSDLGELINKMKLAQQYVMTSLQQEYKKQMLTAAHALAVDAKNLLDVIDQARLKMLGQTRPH

Compound | DC50 [nM] | Dmax [%]
CNC(=O)c1ccccc1Nc1nc(Nc2ccc(CN[C@@H]3CCN(c4ccc5c(c4)C(=O)N(C4CCC(=O)NC4=O)C5=O)C[C@@H]3F)cc2)ncc1C(F)(F)F (stereo partly drawn) [Compound A39, 2-((2-((4-((((3S,4R)-1-(2-(2,6-Dioxopiperidin-3-yl)-1,3-dioxoisoindolin-5-yl)-3-fluoropiperidin-4-yl)amino)methyl)phenyl)amino)-5-(trifluoromethyl)pyrimidin-4-yl)amino)-N-methylbenzamide] | 0.71 | 89
CN(c1ccccc1CNc1cc(Nc2ccc(C(=O)NC3CCN(c4ccc5c(c4)C(=O)N(C4CCC(=O)NC4=O)C5=O)CC3)cc2)ncc1C(F)(F)F)S(C)(=O)=O (stereo not shown) [Compound A15, N-(1-(2-(2,6-dioxopiperidin-3-yl)-1,3-dioxoisoindolin-5-yl)piperidin-4-yl)-4-((4-((2-(N-methylmethylsulfonamido)benzyl)amino)-5-(trifluoromethyl)pyridin-2-yl)amino)-benzamide] | 2.6 | 93
CN(c1ccccc1CNc1cc(Nc2ccc(CNC3CCN(c4ccc5c(c4)C(=O)N(C4CCC(=O)NC4=O)C5=O)CC3)cc2)ncc1C(F)(F)F)S(C)(=O)=O (stereo not shown) [Compound A14, N-(2-(((2-((4-(((1-(2-(2,6-dioxopiperidin-3-yl)-1,3-dioxoisoindolin-5-yl)piperidin-4-yl)amino)methyl)phenyl)amino)-5-(trifluoromethyl)pyridin-4-yl)amino)methyl)phenyl)-N-methylmethanesulfonamide] | 10 | 93
CN(c1nccnc1CNc1nc(Nc2ccc(CN[C@@H]3CCN(c4ccc5c(c4)C(=O)N(C4CCC(=O)NC4=O)C5=O)C[C@@H]3F)cc2)ncc1C(F)(F)F)S(C)(=O)=O (stereo partly drawn) [Compound A36, N-(3-(((2-((4-((((3S,4R)-1-(2-(2,6-Dioxopiperidin-3-yl)-1,3-dioxoisoindolin-5-yl)-3-fluoropiperidin-4-yl)amino)methyl)phenyl)amino)-5-(trifluoromethyl)pyrimidin-4-yl)amino)-methyl)pyrazin-2-yl)-N-methylmethanesulfonamide] | 0.83 | 94
O=C1CCC(N2C(=O)c3ccc(N4CCC(NCc5ccc(Nc6ncc(C(F)(F)F)c(Oc7cccc8c7C(=O)CC8)n6)cc5)CC4)cc3C2=O)C(=O)N1 (stereo not shown) [Compound A27, 2-(2,6-dioxopiperidin-3-yl)-5-(4-((4-((4-((3-oxo-2,3-dihydro-1H-inden-4-yl)oxy)-5-(trifluoromethyl)pyrimidin-2-yl)amino)benzyl)amino)piperidin-1-yl)isoindoline-1,3-dione] | 1.3 | 94
COc1cc(CN[C@@H]2CCN(c3ccc4c(c3)C(=O)N(C3CCC(=O)NC3=O)C4=O)C2)c(F)cc1Nc1ncc(C(F)(F)F)c(Oc2cccc3c2C(=O)N(C)C3)n1 (stereo partly drawn) [Compound A58, 2-(2,6-Dioxopiperidin-3-yl)-5-((R)-3-((2-fluoro-5-methoxy-4-((4-((2-methyl-3-oxoisoindolin-4-yl)oxy)-5-(trifluoromethyl)pyrimidin-2-yl)amino)benzyl)amino)pyrrolidin-1-yl)isoindoline-1,3-dione] | 0.9 | 84
CN(c1ccccc1CNc1cc(Nc2ccc(CNC3CN(c4ccc5c(c4)C(=O)N(C4CCC(=O)NC4=O)C5=O)C3)cc2)ncc1C(F)(F)F)S(C)(=O)=O (stereo not shown) [Compound A19, N-(2-(((2-((4-(((1-(2-(2,6-Dioxopiperidin-3-yl)-1,3-dioxoisoindolin-5-yl)azetidin-3-yl)amino)methyl)phenyl)amino)-5-(trifluoromethyl)pyridin-4-yl)amino)methyl)phenyl)-N-methylmethanesulfonamide] | 2.8 | 96
CN(c1nccnc1CNc1nc(Nc2ccc(OCCCCCCCOc3ccc4c(c3)C(=O)N(C3CCC(=O)NC3=O)C4=O)cc2)ncc1C(F)(F)F)S(C)(=O)=O (stereo not shown) [Compound A9, N-(3-(((2-((4-((7-((2-(2,6-Dioxopiperidin-3-yl)-1,3-dioxoisoindolin-5-yl)oxy)-heptyl)oxy)phenyl)amino)-5-(trifluoromethyl)pyrimidin-4-yl)amino)methyl)pyrazin-2-yl)-N-methylmethanesulfonamide] | 14 | 100
CN1Cc2cccc(Oc3nc(Nc4ccc(CN[C@@H]5CCN(c6ccc7c(c6)C(=O)N(C6CCC(=O)NC6=O)C7=O)C5)c(F)c4)ncc3C(F)(F)F)c2C1=O (stereo partly drawn) [Compound A57, 2-(2,6-Dioxopiperidin-3-yl)-5-((R)-3-((2-fluoro-4-((4-((2-methyl-3-oxoisoindolin-4-yl)oxy)-5-(trifluoromethyl)pyrimidin-2-yl)amino)benzyl)amino)pyrrolidin-1-yl)isoindoline-1,3-dione] | 1 | 86
CN(c1nccnc1CNc1nc(Nc2ccc(OCCCCCCOc3ccc4c(c3)C(=O)N(C3CCC(=O)NC3=O)C4=O)cc2)ncc1C(F)(F)F)S(C)(=O)=O (stereo not shown) [Compound A8, N-(3-(((2-((4-((6-((2-(2,6-Dioxopiperidin-3-yl)-1,3-dioxoisoindolin-5-yl)oxy)-hexyl)oxy)phenyl)amino)-5-(trifluoromethyl)pyrimidin-4-yl)amino)methyl)pyrazin-2-yl)-N-methylmethanesulfonamide] | 4.1 | 100

Now from value to compound:

DC50 [nM] | Dmax [%] | Compound
3.5 | 93 | CNC(=O)c1ccccc1Nc1cc(Nc2ccc(CNC3CCN(c4ccc5c(c4)C(=O)N(C4CCC(=O)NC4=O)C5=O)CC3)cc2)ncc1C(F)(F)F (stereo not shown) [Compound A22, 2-((2-((4-(((1-(2-(2,6-Dioxopiperidin-3-yl)-1,3-dioxoisoindolin-5-yl)piperidin-4-yl)amino)methyl)phenyl)amino)-5-(trifluoromethyl}pyridin-4-yl)amino)-N-methylbenzamide]
8.55 | 97 | CNC(=O)c1ccccc1Nc1cc(Nc2ccc(CNC3CCN(c4ccc5c(c4)C(=O)N(C4CCC(=O)NC4=O)C5=O)CC3)c(F)c2)ncc1C(F)(F)F (stereo not shown) [Compound A29, 2-((2-((4-(((1-(2-(2,6-dioxopiperidin-3-yl)-1,3-dioxoisoindolin-5-yl)piperidin-4-yl)amino)-methyl)-3-fluorophenyl)amino)-5-(trifluoromethyl)pyridin-4-yl)amino)-N-methyl-benzamide]
0.79 | 91 | CNC(=O)c1ccccc1Nc1cc(Nc2ccc(CN[C@@H]3CCN(c4ccc5c(c4)C(=O)N(C4CCC(=O)NC4=O)C5=O)C3)cc2)ncc1C(F)(F)F (stereo partly drawn) [Compound A32, 2-((2-((4-((((3R)-1-(2-(2,6-Dioxopiperidin-3-yl)-1,3-dioxoisoindolin-5-yl)-pyrrolidin-3-yl)amino)methyl)phenyl)amino)-5-(trifluoromethyl)pyridin-4-yl)amino)-N-methylbenzamide]
1.7 | 88 | CNC(=O)c1ccccc1Nc1cc(Nc2ccc3c(c2)CC(=O)N3CC2CCN(c3ccc4c(c3)C(=O)N(C3CCC(=O)NC3=O)C4=O)CC2)ncc1C(F)(F)F (stereo not shown) [Compound A17, 2-((2-((1-((1-(2-(2,6-Dioxopiperidin-3-yl)-1,3-dioxoisoindolin-5-yl)piperidin-4-yl)methyl)-2-oxoindolin-5-yl)amino)-5-(trifluoromethyl)pyridin-4-yl)amino)-N-methyl-benzamide]
25 | 83 | CS(=O)(=O)c1ccccc1Nc1cc(Nc2ccc(CNC3CCN(c4ccc5c(c4)C(=O)N(C4CCC(=O)NC4=O)C5=O)CC3)cc2)ncc1C(F)(F)F (stereo not shown) [Compound A34, 2-(2,6-Dioxopiperidin-3-yl)-5-(4-((4-((4-((2-(methylsulfonyl)phenyl)amino)-5-(trifluoromethyl)pyridin-2-yl)amino)benzyl)amino)piperidin-1-yl)isoindoline-1,3-dione]
0.13 | 97 | CNC(=O)c1ccccc1Nc1nc(Nc2ccc(CNC3CCN(c4ccc5c(c4)C(=O)N(C4CCC(=O)NC4=O)C5=O)CC3)cc2)ncc1C(F)(F)F (stereo not shown) [Compound A25, 2-((2-((4-(((1-(2-(2,6-dioxopiperidin-3-yl)-1,3-dioxoisoindolin-5-yl)piperidin-4-yl)amino)methyl)phenyl)amino)-5-(trifluoromethyl)pyrimidin-4-yl)amino)-N-methylbenzamide]
0.98 | 96 | CNC(=O)c1ccccc1Nc1cc(Nc2cc(F)c(CNC3CCN(c4ccc5c(c4)C(=O)N(C4CCC(=O)NC4=O)C5=O)CC3)cc2OC)ncc1C(F)(F)F (stereo not shown) [Compound A54, 2-((2-((4-(((1-(2-(2,6-Dioxopiperidin-3-yl)-1,3-dioxoisoindolin-5-yl)piperidin-4-yl)amino)methyl)-5-fluoro-2-methoxyphenyl)amino)-5-(trifluoromethyl)pyridin-4-yl)amino)-N-methylbenzamide]
